Consider three molecules from PMC4934371 (Biochemistry, 2016).

In data set [1] the target is T1, triosephosphate isomerase (TbbTIM) (Trypanosoma brucei, UniProt P04789, I172A/L232A). Description: activation of [[…]-13C]-glycolaldehyde turnover followed by 1H NMR, fit to give Kd. The class given is biochemical.
Data set [2] concerns the target T1, triosephosphate isomerase (TbbTIM). Description: X-ray crystal structure. The class given is biochemical.
Data set [3] has as its system O=C[C@H](O)COP(=O)(O)O. Description: steady-state kinetics of isomerization. Conditions: active site; pH 7.5; 25.0 °C. The class given is biochemical, Trypanosoma brucei.

Consider `O=[PH](O)O` [HPi, phosphite dianion], for which the Kd in data set [1] is 5.9 ± 0.5 mM.
As to `O=C(O)COP(=O)(O)O` [PGA, 2-phosphoglycolate], the Ki in data set [2] was 0.12 mM.
Take “triosephosphate isomerase (TbbTIM) (Trypanosoma brucei brucei; I172A/L232A)”: the specificity constant (kcat/Km) in data set [3] amounted to 350000 M⁻¹ s⁻¹.

By Kd is commonly meant the constant that tells how readily two partners part at equilibrium. High values mean lower affinity, low ones higher affinity. The term Ki denotes the equilibrium dissociation constant of an inhibitor or competing ligand from its target. A low value points to tighter binding. As usually defined, the kcat/Km is the turnover number divided by the Michaelis constant.
